Earlier results on one molecule are cited in patent US6391849B1, “Method and pharmaceutical composition for disrupting lactation in a mammary gland and for treating and preventing mastitis” (Agricultural Research Organization, The Volcani Center, priority 1999, dated 2002).

This data set has as its system mammary gland. The note with it: EGTA introduced into the mammary gland.

Each structure is given as a SMILES string.

With `O=C(O)CN(CCOCCOCCN(CC(=O)O)CC(=O)O)CC(=O)O` [EGTA], the TJ integrity result is recorded as “transient loss” and the milk yield result is recorded as “transient reduction”.
